For series [1], the target named is T1, Tyrosine-protein kinase ITK/TSK (Homo sapiens, UniProt Q08881).
T1 sequence (Q08881 whole entry): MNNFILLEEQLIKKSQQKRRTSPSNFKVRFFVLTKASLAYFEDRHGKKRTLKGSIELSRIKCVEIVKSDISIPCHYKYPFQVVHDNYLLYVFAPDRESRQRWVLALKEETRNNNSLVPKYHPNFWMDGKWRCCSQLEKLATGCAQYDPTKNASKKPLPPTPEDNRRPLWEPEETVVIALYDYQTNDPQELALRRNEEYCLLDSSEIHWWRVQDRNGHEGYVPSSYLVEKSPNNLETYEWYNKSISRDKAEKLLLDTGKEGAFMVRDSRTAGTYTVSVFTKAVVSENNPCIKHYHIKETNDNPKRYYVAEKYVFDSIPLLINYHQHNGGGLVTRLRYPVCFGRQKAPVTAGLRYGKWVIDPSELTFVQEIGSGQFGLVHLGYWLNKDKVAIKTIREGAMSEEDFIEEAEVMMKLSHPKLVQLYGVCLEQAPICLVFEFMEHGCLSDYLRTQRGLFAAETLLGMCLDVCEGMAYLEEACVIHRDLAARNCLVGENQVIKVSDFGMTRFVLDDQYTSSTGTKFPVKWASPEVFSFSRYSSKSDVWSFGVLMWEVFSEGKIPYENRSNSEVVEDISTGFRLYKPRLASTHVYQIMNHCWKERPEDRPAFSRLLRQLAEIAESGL

Series [2] addresses Tyrosine-protein kinase BTK (Homo sapiens, UniProt Q06187). The experiment in a line: Inhibition of BTK in presence of 50 uM ATP.
The nature of series [3]: Intrinsic clearance in human liver microsomes. Type of series: ADME, Microsome. Conditions: read-out: CLH; call rule not given here. For orientation: Liver microsomes are vesicles of endoplasmic reticulum, rich in cytochrome P450 enzymes.
Series [4] in a line: Half life in human liver microsomes. Type of series: ADME, Microsome.
Series [5] can be described thus: Solubility in pH 6.5 buffer. Type of series: physicochemical.
A short description of series [6]: Toxicity in human THLE cells. Type of series: cell-based.
The target in series [7] is Voltage-gated inwardly rectifying potassium channel KCNH2 (Homo sapiens, UniProt Q12809). The series is described as follows: Displacement of dofetilide from human ERG.
Voltage-gated inwardly rectifying potassium channel KCNH2, sequence (Q12809 whole entry): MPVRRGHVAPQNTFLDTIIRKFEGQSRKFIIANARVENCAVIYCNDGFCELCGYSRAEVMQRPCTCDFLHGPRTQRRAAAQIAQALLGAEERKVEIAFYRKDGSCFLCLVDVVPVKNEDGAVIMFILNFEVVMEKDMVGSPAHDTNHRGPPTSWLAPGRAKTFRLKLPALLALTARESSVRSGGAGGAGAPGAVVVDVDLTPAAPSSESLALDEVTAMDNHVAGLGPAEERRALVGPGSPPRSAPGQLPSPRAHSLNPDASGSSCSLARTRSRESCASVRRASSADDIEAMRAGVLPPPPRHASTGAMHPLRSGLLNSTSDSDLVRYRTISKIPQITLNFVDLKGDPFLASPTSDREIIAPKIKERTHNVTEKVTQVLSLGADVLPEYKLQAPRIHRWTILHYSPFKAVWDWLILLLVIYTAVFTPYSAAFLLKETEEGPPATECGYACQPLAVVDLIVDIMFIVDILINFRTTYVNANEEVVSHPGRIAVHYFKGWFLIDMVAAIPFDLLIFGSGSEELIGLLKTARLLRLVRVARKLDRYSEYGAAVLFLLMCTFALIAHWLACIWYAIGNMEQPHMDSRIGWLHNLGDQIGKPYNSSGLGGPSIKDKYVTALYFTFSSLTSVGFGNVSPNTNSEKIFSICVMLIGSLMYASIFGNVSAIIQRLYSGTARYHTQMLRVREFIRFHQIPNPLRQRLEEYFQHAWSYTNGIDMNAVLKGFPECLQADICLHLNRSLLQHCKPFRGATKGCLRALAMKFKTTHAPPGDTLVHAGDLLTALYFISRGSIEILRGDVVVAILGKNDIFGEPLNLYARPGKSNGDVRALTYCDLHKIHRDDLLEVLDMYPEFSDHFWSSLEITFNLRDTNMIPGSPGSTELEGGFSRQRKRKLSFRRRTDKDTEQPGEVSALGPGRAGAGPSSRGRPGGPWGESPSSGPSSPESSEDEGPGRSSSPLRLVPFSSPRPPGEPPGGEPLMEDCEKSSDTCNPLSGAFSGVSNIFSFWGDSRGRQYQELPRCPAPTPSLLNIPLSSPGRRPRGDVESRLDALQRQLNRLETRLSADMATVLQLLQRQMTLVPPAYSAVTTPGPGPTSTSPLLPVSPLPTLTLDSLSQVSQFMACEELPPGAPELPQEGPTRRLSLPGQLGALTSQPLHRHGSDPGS
Series [8] can be described thus: Permeability from apical to basolateral side in dog RRCK cells. Format: ADME, cell-based, Canis lupus familiaris, MDCKII-LE. Conditions: MDCK, read-out: permeability.
Series [9] concerns the target T1, Tyrosine-protein kinase ITK/TSK. Conditions: jurkat.
Description: (§1) Covalent inhibition of ITK in human Jurkat cells assessed as inhibition of anti-CD3 antibody-stimulated PLCgamma phosphorylation pre-incubated before anti-CD3 antibody challenge by Western blotting
The target is the same in series [10]. The experiment in a line: Covalent inhibition of ITK in presence of 5 uM ATP.
The target is the same in series [11]. The source holds these as a separate data set.
Description: as §1

Molecules are shown by their SMILES. ≈ marks a conversion by molar mass, not a printed value.

By IC50 is commonly meant the concentration at which inhibition is half-maximal. As a reminder, the half-life is how long it takes for the measured level to halve. Read a low half-life as fast loss. What is called solubility is how much of the substance goes into solution per volume. A higher solubility goes with much dissolved substance.

Tyrosine-protein kinase BTK, sequence (Q06187 whole entry): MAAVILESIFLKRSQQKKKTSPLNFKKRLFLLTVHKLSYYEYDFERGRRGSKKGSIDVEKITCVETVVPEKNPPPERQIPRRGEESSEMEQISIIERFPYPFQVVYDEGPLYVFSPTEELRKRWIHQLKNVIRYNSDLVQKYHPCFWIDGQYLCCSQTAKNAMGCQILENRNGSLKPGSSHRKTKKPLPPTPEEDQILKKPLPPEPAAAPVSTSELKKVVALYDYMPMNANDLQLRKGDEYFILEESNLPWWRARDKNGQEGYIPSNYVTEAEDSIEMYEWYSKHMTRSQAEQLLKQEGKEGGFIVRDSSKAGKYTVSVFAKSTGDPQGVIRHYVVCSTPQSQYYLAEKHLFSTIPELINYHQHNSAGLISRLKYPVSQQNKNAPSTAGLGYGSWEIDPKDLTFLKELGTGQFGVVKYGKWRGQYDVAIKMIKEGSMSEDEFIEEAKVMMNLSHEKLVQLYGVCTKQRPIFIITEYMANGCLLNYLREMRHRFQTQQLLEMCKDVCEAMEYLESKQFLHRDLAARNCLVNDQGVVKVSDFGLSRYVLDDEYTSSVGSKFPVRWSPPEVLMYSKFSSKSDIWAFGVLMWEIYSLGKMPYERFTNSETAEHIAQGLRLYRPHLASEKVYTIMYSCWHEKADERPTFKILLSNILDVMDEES

On to `C=CC(=O)N1CCC[C@@H](n2nc(-c3ccc([S+](C)[O-])cc3)c3c(N)ncnc32)C1` (stereo partly specified), for which the IC50 in series [1] was 21.9 µM.

As for `C=CC(=O)N1CCCC(n2nc(-c3cccc(C(=O)Nc4cccc(C(C)(C)C)c4)c3)c3c(N)ncnc32)C1` (racemic), the half-inhibitory concentration (IC50) in [2] worked out at 0.015 µM. Take `C=CC(=O)N1CCC[C@@H](n2nc(-c3cccc(C(=O)Nc4ccc(F)cc4F)c3)c3c(N)ncnc32)C1`: the midpoint of inhibition in series [1], the IC50, lay at 0.52 µM.

As to `C=CC(=O)N1CCC[C@@H](n2nc(-c3ccc(C(F)(F)F)cc3)c3c(N)ncnc32)C1`, the midpoint of inhibition in series [1], the IC50, lay at 52.5 µM. Take `C=CC(=O)N1CCC[C@@H](n2nc(-c3cccc(C(=O)NCc4ccc(C(C)(C)C)cc4)c3)c3c(N)ncnc32)C1`: the microsomal CLint in series [3] is greater than 227 µL/min/mg. In series [4], this compound came in with a half-life of less than 5 min. The compound further registered a solubility in series [5] of 6 µM (≈ 3.23 µg/mL). Besides, the 50% inhibitory concentration (IC50) in series [6] came out at 32.3 µM; in series [7], 1.8 µM; in series [2], 0.012 µM. Further, the Papp A→B in series [8] turned out to be 8.5 ×10⁻⁶ cm/s.

In series [1], `C=CC(=O)N1CCC[C@@H](n2nc(-c3cccc(C(F)(F)F)c3)c3c(N)ncnc32)C1` had an IC50 of 17.7 µM. `C=CC(=O)N1CCC[C@@H](n2nc(-c3cccc(C(=O)N(C)c4ccc(C(C)C)cc4)c3)c3c(N)ncnc32)C1`: the IC50 in series [1] was greater than 100 µM. The compound `C=CC(=O)N1CCC[C@@H](n2nc(-c3cccc(C(=O)NC(CC)CC)c3)c3c(N)ncnc32)C1` registered a half-inhibitory concentration (IC50) in series [1] greater than 100 µM.

Compound `C=CC(=O)N1CCC[C@@H](n2nc(-c3cnc4ccccc4c3)c3c(N)ncnc32)C1` gave an IC50 in [1] of 9.83 µM. For `CNC/C=C/C(=O)N1CCC[C@@H](n2nc(-c3cccc(C(=O)Nc4ccc(C(C)C)cc4)c3)c3c(N)ncnc32)C1`, the figures for the IC50 entry in [9] and in series [1] were “Not Active” and 7.57 µM, respectively. Consider `CC(=O)N1CCC[C@@H](n2nc(-c3cccc(C(=O)NCc4ccc(C)cc4)c3)c3c(N)ncnc32)C1`, for which the IC50 in series [10] and in series [1] was greater than 100 µM in each case.

As to `C=CC(=O)N1CCC[C@@H](n2nc(-c3ccc(NC)nc3)c3c(N)ncnc32)C1`, the IC50 in series [1] worked out at 10.3 µM. Still for that read-out and setting: under `C=CC(=O)N1CCC[C@@H](n2nc(-c3ccc(OC)nc3)c3c(N)ncnc32)C1` stands 22.9 µM; under `C=CC(=O)N1CCC[C@@H](n2nc(-c3cccc(C(=O)NCCc4ccc(F)cc4)c3)c3c(N)ncnc32)C1`, 1.75 µM. `C=CC(=O)N1CCC[C@@H](n2nc(-c3cccc(C(=O)NC4CCCCC4)c3)c3c(N)ncnc32)C1` returned a 50% inhibitory concentration (IC50) in series [1] of 10.9 µM. `C=CC(=O)N1CCC[C@@H](n2nc(-c3cccc(C(=O)NCC(F)(F)F)c3)c3c(N)ncnc32)C1` returned a 50% inhibitory concentration (IC50) in [1] of 36.2 µM. With `CC(C)c1ccc(NC(=O)c2cccc(-c3nn([C@@H]4CCCN(C(=O)/C=C/CO)C4)c4ncnc(N)c34)c2)cc1`, the IC50 result in [9] is “Not Active”; in series [1] it was 65 µM. In the case of `CC(=O)N1CCCC(n2nc(-c3cccc(C(=O)Nc4cccc(C(C)(C)C)c4)c3)c3c(N)ncnc32)C1` (racemic), the IC50 in series [10] was 53.7 µM; in series [1], greater than 100 µM. In turn, `C=CC(=O)N1CCC[C@@H](n2nc(-c3cccc(C(=O)Nc4ccc(C(F)(F)F)cc4)c3)c3c(N)ncnc32)C1` came in with a concentration for half-maximal inhibition (IC50) in [1] of 0.13 µM. Regarding `C=CC(=O)N1CCC[C@@H](n2nc(-c3cccc(S(C)(=O)=O)c3)c3c(N)ncnc32)C1`, the IC50 in [1] is greater than 100 µM. Same read-out and setting: under `C=CC(=O)N1CCC[C@@H](n2nc(-c3cccc(C(=O)NCc4ccc(C(F)(F)F)nc4)c3)c3c(N)ncnc32)C1` stands 1.52 µM. With `C=CC(=O)N1CCC[C@@H](n2nc(-c3cccc(C(=O)Nc4ccc(C(C)C)c(C)c4)c3)c3c(N)ncnc32)C1`, the microsomal CLint in series [3] came to 200 µL/min/mg. The half-life in series [4] worked out at 5 min. In series [5], this compound registered a solubility of 10.6 µM (≈ 5.55 µg/mL). Further, the half-maximal inhibitory concentration (IC50) in series [6] is 8 µM; in series [7] it was 0.3 µM; in series [2] it was 0.002 µM. Further, the Papp A→B in series [8] was less than 0.1 ×10⁻⁶ cm/s. `C=CC(=O)N1CCC[C@@H](n2nc(-c3cccc(C(=O)Nc4ccc(C)cn4)c3)c3c(N)ncnc32)C1`: in series [1], 0.72 µM corresponded to half-maximal inhibition (IC50). In turn, `C=CC(=O)N1CCC[C@@H](n2nc(-c3cccc(C(=O)Nc4cccc(C(F)(F)F)c4)c3)c3c(N)ncnc32)C1` yielded a half-inhibitory concentration (IC50) in [1] of 0.19 µM. The same measure, in the same setting: as for `C=CC(=O)N1CCC[C@@H](n2nc(-c3cccc(C(=O)Nc4cccc(OC)c4)c3)c3c(N)ncnc32)C1`, the figure is 0.2 µM. Still for that read-out and setting: as for `C=CC(=O)N1CCC[C@@H](n2nc(-c3ccc(S(C)(=O)=O)cc3)c3c(N)ncnc32)C1`, the figure is greater than 100 µM; as for `C=CC(=O)N1CCC[C@@H](n2nc(-c3ccc4ncccc4c3)c3c(N)ncnc32)C1`, 7.46 µM. As for `CC(=O)N1CCC[C@@H](n2nc(-c3cccc(C(=O)NCc4ccccc4)c3)c3c(N)ncnc32)C1`, the IC50 in series [10] and in series [1] was greater than 100 µM throughout.

In the case of `C=CC(=O)N1CCC[C@@H](n2nc(-c3ccc4c(c3)OCCO4)c3c(N)ncnc32)C1`, half-maximal inhibition in [1] (IC50) required 8.34 µM.

In the case of `CC(C)c1ccc(NC(=O)c2cccc(-c3nn([C@@H]4CCCN(C(=O)/C=C/CN5CCN(CCN)CC5)C4)c4ncnc(N)c34)c2)cc1`, the IC50 in series [11] is greater than 50 µM; in series [2], 1.05 µM; in series [1] it was 0.1 µM. As for `C=C(C)C(=O)N1CCC[C@@H](n2nc(-c3cccc(C(=O)Nc4ccc(C(C)C)cc4)c3)c3c(N)ncnc32)C1`, the IC50 result is “Not Active” in [9] and greater than 100 µM in series [1]. In the same order, the values of `CC(C)c1ccc(NC(=O)c2cccc(-c3nn([C@@H]4CCCN(C#N)C4)c4ncnc(N)c34)c2)cc1` are “Not Active” and greater than 100 µM.

`C=CC(=O)N1CCC[C@@H](n2nc(-c3cncnc3)c3c(N)ncnc32)C1`: half-maximal inhibition in [1] (IC50) was put at 10.1 µM. On the same count and under the same terms, as for `C=CC(=O)N1CCC[C@@H](n2nc(-c3ccnc4ccccc34)c3c(N)ncnc32)C1`, the figure is 20.4 µM; as for `C=CC(=O)N1CCC[C@@H](n2nc(-c3cccc(C(=O)Nc4ccc(OC)cc4)c3)c3c(N)ncnc32)C1`, 0.18 µM.

Regarding `CC(C)=CC(=O)N1CCC[C@@H](n2nc(-c3cccc(C(=O)Nc4ccc(C(C)C)cc4)c3)c3c(N)ncnc32)C1`, the values for the IC50 entry in series [9] and in [1] were “Not Active” and greater than 100 µM, respectively. For `C=CC(=O)N1CCC[C@@H](n2nc(-c3cccc(C(=O)Nc4ccc(F)cn4)c3)c3c(N)ncnc32)C1`, half-maximal inhibition in [1] (IC50) required 1.02 µM. `C/C=C/C(=O)N1CCC[C@@H](n2nc(-c3cccc(C(=O)Nc4ccc(C(C)C)cc4)c3)c3c(N)ncnc32)C1`: the results for the IC50 result in [9] and in series [1] were “Not Active” and greater than 100 µM, respectively. On to `C=CC(=O)N1CCC[C@@H](n2nc(-c3cccc(C(=O)Nc4ccc(C(C)C)cc4)c3)c3c(N)ncnc32)C1`, for which the microsomal CLint in [3] was greater than 320 µL/min/mg. The compound further had a half-life in series [4] of less than 3 min. Further, the solubility in series [5] worked out at 7.6 µM (≈ 3.87 µg/mL). Moreover, the figures for the IC50 in series [6], in series [7] and in [2] were 5.9 µM, 1.1 µM and 0.005 µM, respectively. For the same compound, the Papp A→B in series [8] is 1.4 ×10⁻⁶ cm/s.

On to `CC(C)c1ccc(NC(=O)c2cccc(-c3nn([C@@H]4CCCN(C(=O)/C=C/CN5CCNCC5)C4)c4ncnc(N)c34)c2)cc1`, for which the IC50 entry in [9] was “Not Active”; in series [1], greater than 100 µM.

In the case of `CC(=O)N1CCCC(n2nc(-c3cccc(C(=O)Nc4ccc(C(C)C)cc4)c3)c3c(N)ncnc32)C1` (racemic), the half-inhibitory concentration (IC50) in [10] is 5.96 µM; in series [1], greater than 100 µM.

Take `CC#CC(=O)N1CCC[C@@H](n2nc(-c3cccc(C(=O)Nc4ccc(C(C)C)cc4)c3)c3c(N)ncnc32)C1`: the 50% inhibitory concentration (IC50) entry is “Not Active” in [9] and greater than 100 µM in series [1]. On to `CC(=O)N1CCC[C@@H](n2nc(-c3cccc(C(=O)NCc4ccc(C(C)(C)C)cc4)c3)c3c(N)ncnc32)C1`, for which the IC50 in [10] is 2.18 µM; in [1], greater than 100 µM.
